The values that follow come from patent publication US20080039321A1, “Plant Growth Regulation” (priority 2004, published 2008).

The experiment has as its system wheat (Triticum aestivum, variety "TRISO"). Briefly: Root growth assay, seed treatment, wheat. The class given is in vivo. The note with it: Root Growth of 100 is set as the standard, 16 (±2) days post treatment. An excerpt: Plant roots are a highly proliferative tissue that allows an easy accessible, cheap and short term screening method for plant growth regulators. The results obtained can easily be transferred to the overall effects on a plant of plant growth regulators identified by such a system. By using this root assay one is enabled to determine the effect of a seed treatment to root growth and/or germination and/or changes in habitat of germinated plants in order to identify the possible use as a yield enhancer. Two seeds of wheat (Triticum aestivum, variety “TRISO”) or 1 seed of maize (Zea mays, variety “LORENZO”) per hole in a plastic tray which contains an architecture of 8×13 holes were placed on compost soil covered with sand. These seeds were treated with 100 μl/hole, which creates an application volume of approx. 1200 l/ha, of a compound solution at active ingredient rates equivalent to 100, 10 and 1 g a.i./ha of each compound using an robotic application system (Lizzy Spray Robotics). Six replicates in a row of each compound and concentration were done. The outer rim of the above defined plastic tray was untreated to avoid false negative effects and the middle row (No. 7) was used as untreated control. The treated seeds were allowed to dry for approx. 4 hours and subsequently covered with sand and watered. The trays were stored in climate chambers with 14 hours lighting at a temperature of 24° C. (±2) at daytime and 16° C. (±2) at night and relative humidity (rH) of 60% and daily watered. Assessments were done 16 (±2) days post treatment by counting the germinated plants and assessing the phytotoxicity symptoms and percentage. In addition, the roots were washed out and the shoots were cut directly above the seed and the wet roots were placed on dry paper towels for approximately 30 minutes and weighted afterwards. This procedure provides a similar grade of moisture to the roots so that a comparison of the weights is possible. […]

The structures appear in SMILES notation.

On to `Nc1nc(OCC23CC4CC(CC(C4)C2)C3)c2nc[nH]c2n1` [Compound 1.1, O6-Adamantylmethyl-9H-purin-2-ylamine], for which the “Root Growth” value (1 g a.i./ha) stood at 84, the “Root Growth” value (10 g a.i./ha) turned out to be 76 and the “Root Growth” value (100 g a.i./ha) was found to be 141.
